Source: US12201635B2, “Multi-target kinase inhibitor, pharmaceutical composition, and preparation method for multi-target kinase inhibitor and use thereof” (GUANGZHOU LIUSHUN BIOTECHNOLOGY CO., LTD., priority 2019, dated 2025)

Experiments:
SMMC-7721 hepatoma = test: In vivo anti-tumor activity, nude mouse tumor model of SMMC-7721 liver cancer; conditions: SMMC-7721 liver cancer mice
Text: (§1) In this example, the in vivo anti-tumor activity (liver cancer/esophageal cancer) of the multi-target kinase inhibitor [Compound (I-1)] was investigated according to the requirements in Guidelines for Pharmacodynamics of Anti-tumor Drugs. The experimental procedures and results are as follows:
(§2) Tumor models of nude mice were established using […] heptoma cells and KYSE 410 esophageal cancer cells that meet modeling conditions. The modeled mice were divided into 5 groups: a model group, a Compound (I-1) 5 mg/kg group, a Compound (I-1) 10 mg/kg group, a Compound (I-1) 20 mg/kg group, and a positive control group (sorafenib or cabozantinib). Administration was performed from the day of grouping that was counted as day 1 and for 21 consecutive days, and the 21st day was counted as day21. Tumor volumes were measured twice a week during the period of administration for statistical test.

RET = RET (Homo sapiens, UniProt P07949); test: Z'-LYTE kinase inhibition assay, RET; format: biochemical
Sequence of RET (P07949 29-1114): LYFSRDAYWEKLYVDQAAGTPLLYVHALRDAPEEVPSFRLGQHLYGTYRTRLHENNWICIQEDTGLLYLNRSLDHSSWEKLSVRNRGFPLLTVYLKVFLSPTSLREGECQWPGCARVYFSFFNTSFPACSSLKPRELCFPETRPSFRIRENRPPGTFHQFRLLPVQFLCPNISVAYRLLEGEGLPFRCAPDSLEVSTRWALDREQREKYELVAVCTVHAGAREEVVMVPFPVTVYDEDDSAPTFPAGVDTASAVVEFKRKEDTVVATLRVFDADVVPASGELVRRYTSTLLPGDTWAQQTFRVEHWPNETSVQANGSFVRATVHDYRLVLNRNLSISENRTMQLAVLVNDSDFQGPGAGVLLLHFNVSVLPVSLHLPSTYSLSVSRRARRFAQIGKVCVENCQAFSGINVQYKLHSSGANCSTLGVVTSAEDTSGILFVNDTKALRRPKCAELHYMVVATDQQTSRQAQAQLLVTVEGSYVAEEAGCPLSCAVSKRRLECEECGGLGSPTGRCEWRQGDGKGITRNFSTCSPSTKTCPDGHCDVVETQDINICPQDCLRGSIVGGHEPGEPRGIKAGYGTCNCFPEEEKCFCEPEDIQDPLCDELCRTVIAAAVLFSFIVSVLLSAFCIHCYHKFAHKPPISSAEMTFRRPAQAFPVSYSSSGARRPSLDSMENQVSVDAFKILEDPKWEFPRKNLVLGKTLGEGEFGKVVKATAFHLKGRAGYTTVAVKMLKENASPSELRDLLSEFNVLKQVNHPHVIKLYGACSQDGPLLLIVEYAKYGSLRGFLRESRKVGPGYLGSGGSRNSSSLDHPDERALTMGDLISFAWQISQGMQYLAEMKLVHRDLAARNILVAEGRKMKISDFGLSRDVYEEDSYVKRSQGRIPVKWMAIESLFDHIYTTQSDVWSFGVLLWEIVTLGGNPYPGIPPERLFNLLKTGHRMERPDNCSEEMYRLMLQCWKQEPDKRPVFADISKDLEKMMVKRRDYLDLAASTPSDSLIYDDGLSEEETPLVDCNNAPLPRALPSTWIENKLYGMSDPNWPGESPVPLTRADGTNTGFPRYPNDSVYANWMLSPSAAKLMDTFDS
Protocol: (§3) 1. The compounds to be detected were accurately weighed and added into DMSO to form stock solutions, which were then diluted to desired concentrations with a buffer to give solutions of the compounds to be detected.
(§4) 2. An RET or VEGFR3 or PDGFRA kinase solution, corresponding substrate solutions of Z′-LYTE, a buffer or a compound to be detected and ATP were added into a 384 reaction vessel, and reacted at room temperature for 1 h.
(§5) 3. To each well was added a fluorescence enhancer, followed by incubation at room temperature for 1 h.
(§6) 4. Data were read separately using a fluorescence analyzer.
(§7) 1. The relative inhibitory rate for each well was calculated according to a formula.
(§8) 2. Active samples were diluted and tested for relative inhibitory rates, and the inhibitory rates IC50 were calculated by plotting in the software Xlfit.

VEGFR3 = VEGFR3 (Homo sapiens, UniProt P35916); test: Z'-LYTE kinase inhibition assay, VEGFR3; format: biochemical
Sequence of VEGFR3 (P35916 25-1363): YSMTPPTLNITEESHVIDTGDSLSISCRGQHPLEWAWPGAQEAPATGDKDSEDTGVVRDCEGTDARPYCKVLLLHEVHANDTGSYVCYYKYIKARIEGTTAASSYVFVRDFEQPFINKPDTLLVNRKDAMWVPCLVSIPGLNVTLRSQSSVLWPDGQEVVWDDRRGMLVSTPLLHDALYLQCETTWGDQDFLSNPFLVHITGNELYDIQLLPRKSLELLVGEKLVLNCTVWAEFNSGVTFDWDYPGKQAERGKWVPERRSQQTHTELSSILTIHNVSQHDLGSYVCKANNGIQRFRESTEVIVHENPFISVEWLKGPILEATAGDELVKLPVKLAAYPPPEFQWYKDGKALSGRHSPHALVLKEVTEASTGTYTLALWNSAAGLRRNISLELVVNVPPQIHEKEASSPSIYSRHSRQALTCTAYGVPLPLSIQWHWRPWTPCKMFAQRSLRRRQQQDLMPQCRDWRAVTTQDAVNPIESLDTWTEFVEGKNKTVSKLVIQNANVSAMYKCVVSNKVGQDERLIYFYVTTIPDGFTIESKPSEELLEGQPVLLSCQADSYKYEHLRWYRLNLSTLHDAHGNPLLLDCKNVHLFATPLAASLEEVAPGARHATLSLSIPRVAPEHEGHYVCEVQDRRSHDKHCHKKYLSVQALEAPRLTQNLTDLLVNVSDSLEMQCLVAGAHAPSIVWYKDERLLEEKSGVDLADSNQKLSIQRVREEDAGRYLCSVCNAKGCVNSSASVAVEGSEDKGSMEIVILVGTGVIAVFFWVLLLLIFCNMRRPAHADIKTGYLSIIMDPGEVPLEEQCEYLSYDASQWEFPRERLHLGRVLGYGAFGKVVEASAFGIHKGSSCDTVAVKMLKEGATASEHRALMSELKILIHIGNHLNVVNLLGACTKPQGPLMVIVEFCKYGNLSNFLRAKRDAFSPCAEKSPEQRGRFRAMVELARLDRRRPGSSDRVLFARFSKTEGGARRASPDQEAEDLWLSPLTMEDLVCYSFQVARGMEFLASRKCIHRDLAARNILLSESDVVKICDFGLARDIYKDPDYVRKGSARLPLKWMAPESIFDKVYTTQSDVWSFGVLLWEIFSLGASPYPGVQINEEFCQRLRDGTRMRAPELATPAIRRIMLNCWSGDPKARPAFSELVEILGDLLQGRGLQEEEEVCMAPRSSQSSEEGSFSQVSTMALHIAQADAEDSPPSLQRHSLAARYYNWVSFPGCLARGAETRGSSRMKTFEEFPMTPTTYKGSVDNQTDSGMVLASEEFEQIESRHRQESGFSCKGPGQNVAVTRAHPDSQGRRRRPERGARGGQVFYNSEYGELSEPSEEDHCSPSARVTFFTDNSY
Protocol: as §3, §4, §5, §6, §7, §8

PDGFRA = PDGFRA (Homo sapiens, UniProt P16234); test: Z'-LYTE kinase inhibition assay, PDGFRA; format: biochemical
Sequence of PDGFRA (P16234 24-1089): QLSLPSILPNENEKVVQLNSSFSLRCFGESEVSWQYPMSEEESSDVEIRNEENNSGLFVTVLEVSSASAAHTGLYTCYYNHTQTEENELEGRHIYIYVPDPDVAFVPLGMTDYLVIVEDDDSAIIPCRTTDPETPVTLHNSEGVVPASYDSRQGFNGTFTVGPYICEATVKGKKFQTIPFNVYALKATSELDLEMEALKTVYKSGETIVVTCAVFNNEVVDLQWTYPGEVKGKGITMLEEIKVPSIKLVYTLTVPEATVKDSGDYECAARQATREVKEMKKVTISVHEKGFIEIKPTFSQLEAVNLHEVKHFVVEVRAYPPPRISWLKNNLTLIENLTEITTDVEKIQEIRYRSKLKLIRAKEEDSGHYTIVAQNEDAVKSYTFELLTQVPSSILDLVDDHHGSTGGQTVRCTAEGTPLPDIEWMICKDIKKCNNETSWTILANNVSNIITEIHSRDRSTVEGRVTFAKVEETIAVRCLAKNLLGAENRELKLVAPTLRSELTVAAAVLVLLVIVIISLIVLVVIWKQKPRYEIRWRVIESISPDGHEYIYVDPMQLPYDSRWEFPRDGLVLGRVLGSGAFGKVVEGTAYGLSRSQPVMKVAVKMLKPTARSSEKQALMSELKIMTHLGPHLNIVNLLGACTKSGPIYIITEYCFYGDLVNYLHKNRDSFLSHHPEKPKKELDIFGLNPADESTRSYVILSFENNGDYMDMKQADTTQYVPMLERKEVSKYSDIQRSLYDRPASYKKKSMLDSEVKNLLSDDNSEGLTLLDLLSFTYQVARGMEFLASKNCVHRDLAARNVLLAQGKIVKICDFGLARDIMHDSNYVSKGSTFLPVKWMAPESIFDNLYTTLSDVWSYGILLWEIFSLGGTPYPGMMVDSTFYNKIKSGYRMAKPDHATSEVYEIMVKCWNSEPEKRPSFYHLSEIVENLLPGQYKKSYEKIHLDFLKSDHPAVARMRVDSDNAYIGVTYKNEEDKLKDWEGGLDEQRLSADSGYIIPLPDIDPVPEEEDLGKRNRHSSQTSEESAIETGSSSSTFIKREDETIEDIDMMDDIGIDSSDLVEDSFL
Protocol: as §3, §4, §5, §6, §7, §8

[1] = test system: KYSE 410 esophageal cancer; test: In vivo anti-tumor activity, nude mouse tumor model of KYSE 410 esophageal cancer; conditions: KYSE 410 esophageal cancer mice
Text: as §1, §2

[2] = 5, 10 and 20 mg/kg, 21 consecutive days, day21 ANOVA P<0.0001
[3] = 10 and 20 mg/kg, positive control sorafenib or cabozantinib

| Compound | IC50 (RET) [nM] | IC50 (VEGFR3) [nM] | IC50 (PDGFRA) [nM] | Tumor volume compared with the model group (SMMC-7721 hepatoma; [2]) | Tumor volume compared with the positive control group (SMMC-7721 hepatoma; [3]) | Tumor volume compared with the model group [1, 2] | Tumor volume compared with the positive control group [1, 3] |
| --- | --- | --- | --- | --- | --- | --- | --- |
| C=CNC(=O)Nc1ccc(Oc2ncnc3cc(OC)c(OC)cc23)cc1 [Compound I-4] | 26 | 65 | 52 |  |  |  |  |
| COc1cc2ncnc(Oc3ccc(NC(=O)N4CCCC4)cc3)c2cc1OC [Compound I-5] | 102 | 213 | 124 |  |  |  |  |
| COc1cc2ncnc(Oc3ccc(NC(=O)N4CCCCC4)cc3)c2cc1OC [Compound I-6] | 251 | 328 | 632 |  |  |  |  |

Further lines, with some results ahead:

| IC50 (RET) [nM] | IC50 (VEGFR3) [nM] | IC50 (PDGFRA) [nM] | Compound | Tumor volume compared with the model group (SMMC-7721 hepatoma; [2]) | Tumor volume compared with the positive control group (SMMC-7721 hepatoma; [3]) | Tumor volume compared with the model group [1, 2] | Tumor volume compared with the positive control group [1, 3] |
| --- | --- | --- | --- | --- | --- | --- | --- |
| 12 | 30 | 60 | COc1cc2ncnc(Oc3ccc(NC(=O)NC4CC4)cc3)c2cc1OC [Compound I-1] | lower tumor volumes | lower tumor volumes | lower tumor volumes | lower tumor volumes |
| 37 | 16 | 308 | COc1cc2ncnc(Oc3ccc(NC(=O)NC4CCC4)cc3)c2cc1OC [Compound I-2] |  |  |  |  |
| 85 | 9 | 62 | COc1cc2ncnc(Oc3ccc(NC(=O)NC4CCCC4)cc3)c2cc1OC [Compound I-3] |  |  |  |  |
